Source: US20210386714A1, “DRUG AND GENE THERAPY TO TREAT HIGH MYOPIA AND OTHER OCULAR DISORDERS WITH ENLARGED EYE GLOBES” (City University of Hong Kong, priority 2020, published 2021)
“Also recorded” adds a separate entry of the source.

Tests used:
[1] = tested on: SREBP2 transcriptional targets and Lrp2 in mouse RPE; test: mouse RPE explant model, mRNA level by qPCR; format: cell-based
Description: Eyes were quickly removed from the euthanized mouse and dipped in 70% ethanol for decontamination. Under a dissecting stereomicroscope, connective tissues and muscles were carefully removed. After washing twice in PBS, eyes were immersed in warm culture medium (DMEM:F12+10% FBS). Cornea was cutoff using curved scissors, and lens was pulled out gently with tweezers. Or a serrate was cut off to remove iris and cornea. Retina and optic nerve were carefully and completely removed from eye cups. Four radial cuts were made to enable flat-mounting of eye cups. Each eye cup was transferred onto the center of a floating polycarbonate nucleopore filter membrane (Whatman 110406, 0.2 Micron) placed in 6-well plates with the RPE side facing down. The freshly prepared BF175 stock solution was added to the full culture medium to a final BF175 concentration of 12.5 uM. Half of the medium was replaced with fresh medium on the second day. RPE flat-mounts were harvested at 48 hr in explant and processed for RPE isolation and RNA extraction.
Eyecups without retina and optic nerve tissues were dissected as described in the RPE explant section. Two eyes of the same mouse were pooled in one tube and processed together. RPE were incubated in papain solution (Worthington) for 15 minutes. After washing twice in warm medium, RPE were triturated with 600 μl pipette tip gently to dissociate the pigmented RPE cells from sclera. Resuspended cell solution was transferred to a clean tube and spun down at 600 g.
RNAs were converted to cDNA using PrimeScript RT reagent kit with gDNA Eraser (Takara). qPCR was performed using PowerUp Sybr Green Master Mix (Thermofisher) on QuantStudio 3 Real-Time PCR stems (Applied Biosystems). Gapdh was used as the normalizing control. qPCR primers were listed in Supplementary Information.

[2] = tested on: eye enlargement induced by Lrp2 knockdown (AAV8-Best1-Lrp2 sh1); test: eye globe dimension measurement after subretinal co-injection in Lrp2 knockdown eyes; format: in vivo, mouse; settings: subretinal co-injection with virus at P0, BF175 12.5 uM
Description: Subretinal injection into P0 (P2 for AAV-RK-viruses) neonate eyes was performed as known in the art. Approximately 0.25 μl of viruses in PBS was injected into the subretinal space using a pulled angled glass pipette controlled by a FemtoJet (Eppendorf). BF175 stock solution (25 mM in DMSO) was first mixed with Tween-20 (Sigma-Aldrich) at a ratio of 5:1 in order to help BF175 dissolve in PBS. Then the mixed solution was added to the virus to a final BF175 concentration of 12.5 uM. The vehicle treatment was virus added with the same amount of DMSO with Tween-20. For animals used for qPCR and RNA-seq, both left and right eyes were injected and used for RNA extraction. For animals used for eye size measurement or other phenotype characterizations, only the right eye of the animal was injected, and the fellow left eye was uninjected for with-in animal controls.
CD-1 mice were sacrificed at indicated ages. Eyes were enucleated, and connective tissues and muscles were carefully removed using tweezers and scissors. Eyes were immersed in PBS in 6 cm petri dish and imaged under a Nikon SMZ800N dissection scope with 2× magnification. ED and AL were measured in imageJ and converted to millimeters. OCT

[3] = mouse RPE explant, 12.5 uM BF175 in culture medium, 48 hr

**Q.** For CC1(C)OB(c2ccc(/C=C/c3cc(Cl)cc(Cl)c3)cc2)OC1(C)C [BF175], which “mRNA level of Hmgcr” value [1, 3] is on record?
**A.** Its value is “reduced”.

**Q.** And the “mRNA level of Ldlr” value [1, 3]?
**A.** Its value is “reduced”.

**Q.** And the “mRNA level of Lrp2 (Lrp2 gene expression in RPE)” value [1, 3]?
**A.** Its value is “significantly increased”.

**Q.** What about the “Lrp2 sh1-induced increase in eye size” value [2] of the same compound?
**A.** The value was “rescued; also recorded: effectively suppressed”.

**Q.** How did the “Lrp2 gene expression in RPE” value ([1]; RPE cells, Fatostatin, concentration not given) turn out when Br.CCCc1cc(-c2nc(-c3ccc(C)cc3)cs2)ccn1 [Fatostatin, reference compound] was run?
**A.** Its value is “increases”.
